Assay in all cases: DTP human tumour cell line panel, 48 h
For assay [1], the system named is NCI-H522 lung.
Assay [2] has as its system PC-3 prostate.
For assay [3], the system named is SF-539 CNS.
Assay [4] has as its system IGROV1 ovarian.
Assay [5] has as its system NCI/ADR-RES ovarian.
The subject of assay [6] is LOX IMVI melanoma.
The subject of assay [7] is NCI-H226 lung.
Assay [8] deals with SN12C renal.
The test system of assay [9] is A549 NSCLC.
In assay [10] the test system is HOP-92 NSCLC.

Our source for the TGI values is PubChem BioAssay (NCI).

Molecules are shown by their SMILES.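 96-well plates; 48 h exposure; 5 concentrations. Endpoints by linear interpolation between flanking doses. Not reached: highest tested concentration assigned. Definition used: TGI = concentration required for complete inhibition of growth.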

The TGI is the concentration giving total growth inhibition. A higher TGI goes with lower sensitivity of the cells.

For `CC(C(O)c1ccccc1)[N+](=O)[O-]` (stereo not given), the TGI came to 22.9 µM in assay [1]; 45.3 µM in assay [2]; 49.1 µM in assay [3]; 34.4 µM in [4]; 93.1 µM in assay [5]; 6.02 µM in assay [6]. In addition, the TGI in assay [7] stood at 48.3 µM; in [8], 35.6 µM; in assay [9], 40 µM.

For the compound `COc1ccc(CCNC(=S)/N=C\C2=C(O)c3ccccc3C2=O)cc1OC`, the TGI in assay [1] is above 100 µM; in assay [2], above 100 µM; in [3], above 100 µM; in assay [10], 8.92 µM; in assay [4] it was above 100 µM; in [5], above 100 µM. Besides, the TGI in assay [6], in assay [7], in assay [8] and in assay [9] was above 100 µM each time.

As for `CC1(C)OCC(C2OC(=O)C(OCc3ccccc3)=C2OCc2ccccc2)O1` (stereo not given), the TGI in [1] was 78.4 µM; in assay [2], 78.1 µM; in assay [3], above 100 µM; in assay [10], above 100 µM; in [4], above 100 µM; in assay [5] it was above 100 µM. Further, the TGI in assay [6], in assay [7], in assay [8] and in [9] was above 100 µM in each case.

With `CCN(CC)CCNC(=O)c1cc2cc(NC(=O)c3cc4cc(NC(=O)c5cc6cc([N+](=O)[O-])ccc6[nH]5)ccc4[nH]3)ccc2[nH]1`, the TGI in assay [1], in assay [2], in assay [10], in assay [4], in assay [5] and in assay [6] was above 100 µM in each case. Moreover, the TGI in [7], in [8] and in assay [9] was above 100 µM each time.

Take `CC(C)(CO)NC(=O)c1cccc(C(=O)NC(C)(C)CO)c1Br`: the TGI in assay [2], in assay [3], in [10], in assay [4], in assay [5] and in assay [6] was above 100 µM each time. Also, the TGI in assay [7] and in assay [9] was above 100 µM each time.

With `O=C(/C=C/c1ccsc1)c1ccc(Cl)s1`, the TGI is above 100 µM in [2]; above 100 µM in [3]; above 100 µM in assay [4]; above 100 µM in assay [5]; 37.1 µM in assay [6]; above 100 µM in assay [7]. For the same compound, the TGI in [8] and in assay [9] was above 100 µM each time.

As for `CS(=O)(=O)OC1CCN(C2(c3cccc(O)c3)CCCCC2)CC1`, the TGI in assay [1] was above 100 µM; in assay [2] it was above 100 µM; in [3] it was 89.9 µM; in [10], above 100 µM; in assay [4], above 100 µM; in [5], above 100 µM. In addition, the TGI in assay [6] is 51.8 µM; in [7], above 100 µM; in assay [8] it was above 100 µM; in assay [9], above 100 µM.

For `CC(=O)O[C@H]1CC[C@H]2[C@@H]3CC[C@H]4Nc5c(cnn5S(C)(=O)=O)C[C@]4(C)[C@H]3CC[C@]12C`, the TGI in assay [1], in assay [2], in assay [10], in assay [4], in [5] and in assay [7] was above 100 µM in each case. This compound gave a TGI in assay [8] above 100 µM.

Consider `CCCCCCCCCCOC1C(C(C)OCCCN(C)C)OC2OC3(CCCCC3)OC21` (stereo not given), for which the TGI is 34 µM in [1]; 25.2 µM in assay [2]; 16.3 µM in assay [10]; 28.1 µM in assay [4]; 32.2 µM in assay [5]; 10.7 µM in [6]. For the same compound, the TGI in [7] is 38.1 µM; in [8] it was 30.3 µM; in assay [9], 30.8 µM.

Take `Cc1cc(O)c(/C=N/C(=O)NN)c(=O)o1`: the TGI in assay [1], in assay [2], in [3], in assay [10], in assay [4] and in assay [5] was above 100 µM in each case. Besides, the TGI in [6], in assay [8] and in assay [9] was above 100 µM each time.

As to `Cc1cc2nc(NS(=O)(=O)c3cc(C)c(Cl)cc3S)[nH]c2cc1C`, the TGI in assay [1], in assay [2], in assay [3], in assay [10], in assay [4] and in assay [5] was above 100 µM each time. Further, the TGI in [6], in assay [8] and in assay [9] was above 100 µM in each case.

As to `FC(F)(F)c1nc2cc(SSc3cc4nc(C(F)(F)F)[nH]c4cc3Cl)c(Cl)cc2[nH]1`, the TGI in assay [1], in [2], in assay [3], in [4], in [5] and in assay [6] was above 100 µM throughout. Also, the TGI in assay [7], in assay [8] and in assay [9] was above 100 µM throughout.

Consider `CCOC(=O)c1ccc2c(=O)n3c(C(=O)OCC)ccc3c(=O)n12`, for which the TGI in [1], in [2], in assay [4], in assay [5], in [6] and in assay [7] was above 100 µM each time. The TGI in assay [8] and in assay [9] was above 100 µM throughout.

Take `CC(Nc1cc(=O)n(C)c(=O)[nH]1)c1ccccc1` (stereo not given): the TGI in assay [1], in [2], in assay [3], in assay [10], in assay [4] and in assay [5] was above 100 µM throughout. Besides, the TGI in assay [6], in [8] and in assay [9] was above 100 µM throughout.

Regarding `CC(C)=CCC[C@@H](C)C1=C(O)C(Nc2ccccc2F)=C(C)C(=O)C1=O`, the TGI is above 100 µM in [2]; above 65.3 µM in [10]; above 69.5 µM in [4]; 23 µM in [5]; above 100 µM in assay [6]; above 78.7 µM in [7]. Also, the TGI in assay [8] was above 100 µM; in [9], above 77.5 µM.

Consider `COC(=O)C(Cc1ccccc1)NC(=O)C(CCCN=C(N)N)NC(=O)OCc1ccccc1` (stereo not given), for which the TGI in assay [1], in assay [2], in [10], in assay [4], in assay [5] and in [6] was above 100 µM throughout. Also, the TGI in [7], in assay [8] and in assay [9] was above 100 µM throughout.

Regarding `CCCCCCCCCCCCCCCCCCNC(=S)/N=C/c1c(O)cc(C)oc1=O`, the TGI in [2] was 69.8 µM; in assay [3] it was 62.3 µM; in assay [10] it was above 100 µM; in [4], 55.8 µM; in assay [5], above 100 µM; in assay [6], above 100 µM. The TGI was above 100 µM in assay [7], above 100 µM in [8] and 69.5 µM in assay [9].

Regarding `CC[C@@]1(O)C(=O)OCc2c1cc1n(c2=O)Cc2c-1nc1ccccc1c2/C=N\NC(=O)C(N)=O`, the TGI in [1] is 46.5 µM; in assay [2] it was above 100 µM; in assay [3], 0.177 µM; in assay [10], 12.9 µM; in assay [4], 49.4 µM; in assay [5], above 73.5 µM. In addition, the figures for the TGI in [6], in assay [8] and in assay [9] were 3.72 µM, above 100 µM and above 100 µM, respectively.

Regarding `CCC(=O)n1c(=O)n(-c2ccc([N+](=O)[O-])cc2)c(=O)n1C(=O)CC`, the TGI in assay [1], in assay [2], in assay [4], in assay [5], in [6] and in assay [7] was above 100 µM in each case. Besides, the TGI in [8] and in assay [9] was above 100 µM in each case.

Consider `CNC(=O)C(NC(=O)[C@H](CC(C)C)NC(=O)[C@@H](S)CCN1C(=O)N(C)C(C)(C)C1=O)C(C)(C)C` (stereo not given in full), for which the TGI in assay [1], in [2], in assay [10], in assay [4], in assay [5] and in assay [7] was above 100 µM each time. The TGI in [8] and in assay [9] was above 100 µM throughout.

For `Cc1ccc(C(=O)/C=C/N2CCN(c3cccc(C(F)(F)F)c3)CC2)cc1`, the TGI in [1] is 35.4 µM; in assay [2], above 100 µM; in [3], 31.5 µM; in assay [10], above 100 µM; in [4], 31.4 µM; in [5] it was 33 µM. Also, the TGI in assay [7] turned out to be 38.9 µM; in [8] it was 36.3 µM; in assay [9], 53.6 µM.

As for `CC(=O)O[C@@H]1CC2[C@@H](CCC3Cc4nc5c(nc4C[C@@]32C)CC2CC[C@@H]3C(CC[C@@]4(C)C3CC[C@@H]4C(C)CCCC(C)C)[C@@]2(C)C5)C2C[C@@H]3OC4(CCC(C)CO4)C(C)[C@@H]3[C@]21C` (stereo not given in full), the TGI in assay [1] is above 100 µM; in [2], above 100 µM; in [3], above 100 µM; in [10] it was 70 µM; in assay [4], above 100 µM; in assay [5], above 100 µM. The results for the TGI in assay [7], in assay [8] and in assay [9] were 87.1 µM, above 100 µM and above 100 µM, respectively.

For `CC1(C)N=C(/C(C#N)=[N+](/[O-])C(=O)c2ccccc2)C(C)(C)N1O`, the TGI in assay [2], in [3], in [10], in assay [4], in assay [5] and in assay [6] was above 100 µM in each case. In addition, the TGI in [7], in assay [8] and in [9] was above 100 µM in each case.

As for `Cc1ccc(-c2nc3n(c2/C=N\N=C(N)N)CCS3)cc1`, the TGI was 18.1 µM in [1]; 28.5 µM in assay [2]; 28.5 µM in assay [3]; 34 µM in assay [10]; 28.3 µM in [4]; above 100 µM in assay [5]. Besides, the values for the TGI in assay [6], in assay [8] and in assay [9] were 31.9 µM, 29.6 µM and 29.5 µM, respectively.

Turning to `COc1cc(C(c2cc(OC)c(OC)c(OC)c2)N2C(=O)CCC2C(=O)O)cc(OC)c1OC` (stereo not given), the TGI in assay [1], in [2], in [3], in [10], in [4] and in [5] was above 100 µM each time. Also, the TGI in assay [7], in assay [8] and in assay [9] was above 100 µM throughout.

Regarding `CCOC(=O)C1CCCC1S(=O)(=O)c1ccc(C)cc1` (stereo not given), the TGI in assay [1], in assay [2], in assay [10], in assay [4], in assay [5] and in [6] was above 100 µM in each case. Besides, the TGI in [7], in assay [8] and in assay [9] was above 100 µM in each case.

For the compound `CN(C)Cc1cc(C(=O)/C=C/c2c(F)cccc2Cl)cc(CN(C)C)c1O`, the TGI came out at 29.5 µM in assay [2]; 20.3 µM in assay [10]; 19 µM in assay [4]; 75.7 µM in [5]; 18.5 µM in [6]; 30.8 µM in assay [7]. Further, the TGI in assay [8] was determined as 17.2 µM; in assay [9] it was 32.5 µM.

As to `COc1cc(OC)c(NC2=NCCO2)cc1Cl`, the TGI was above 100 µM in assay [1]; 71.8 µM in assay [2]; 53.3 µM in [3]; above 100 µM in [4]; 91.7 µM in [5]; 99.3 µM in [6]. For the same compound, the TGI in [7] was 75.6 µM; in assay [8], above 100 µM; in assay [9] it was above 100 µM.

In the case of `Cc1ccc(N2C(=O)C(O)=C(C(=O)C(C)(C)C)C2c2ccc([N+](=O)[O-])cc2)cc1` (stereo not given), the TGI is above 100 µM in assay [2]; 63 µM in assay [3]; 59.5 µM in assay [10]; 43.7 µM in assay [4]; 53.8 µM in [5]; 36.9 µM in [6]. The results for the TGI in assay [7], in [8] and in assay [9] were 43.3 µM, 52.8 µM and 82.5 µM, respectively.
